Experimental data: patent US20220257532A1 (priority 2017, published 2022)
Entries after “also recorded” stand apart in the source; their conditions may differ. Like-named read-outs stand apart in the source and are kept apart here.

Assays:
[1] = molecular target: T1, butyrylcholinesterase (BChE, EC3.1.1.8) (Equus caballus, UniProt P81908); experiment: In vitro cholinesterase activity assay (Ellman) and enzyme kinetics, BChE; format: biochemical; conditions: for SI selectivity index (BChE/AChE): ratio of IC50 BChE/AChE; for Inhibition type Butyrylcholinesterase: Dixon plot and Lineweaver plot; for BChE inhibition / IC50 rank, in words: among the compounds tested
T1 construct: horse serum butyrylcholinesterase (BChE, EC3.1.1.8); purchased Sigma-Aldrich Co. (St. Louis, Mo., USA); host or cells: horse serum
T1 sequence (P81908 whole entry): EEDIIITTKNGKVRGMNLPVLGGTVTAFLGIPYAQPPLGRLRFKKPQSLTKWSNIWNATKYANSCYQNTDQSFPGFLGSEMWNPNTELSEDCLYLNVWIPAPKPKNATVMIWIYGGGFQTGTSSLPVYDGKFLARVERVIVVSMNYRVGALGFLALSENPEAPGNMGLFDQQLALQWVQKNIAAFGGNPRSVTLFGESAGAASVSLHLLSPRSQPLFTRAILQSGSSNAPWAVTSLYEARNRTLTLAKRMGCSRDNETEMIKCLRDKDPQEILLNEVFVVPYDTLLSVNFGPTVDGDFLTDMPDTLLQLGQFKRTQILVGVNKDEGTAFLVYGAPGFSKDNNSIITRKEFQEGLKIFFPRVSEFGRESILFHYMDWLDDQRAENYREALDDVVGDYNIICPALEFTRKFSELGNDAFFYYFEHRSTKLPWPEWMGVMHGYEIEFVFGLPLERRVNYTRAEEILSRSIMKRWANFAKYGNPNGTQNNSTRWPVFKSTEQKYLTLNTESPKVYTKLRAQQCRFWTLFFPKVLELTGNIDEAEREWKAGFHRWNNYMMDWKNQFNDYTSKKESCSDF
Description: (§1) The reaction started with the addition of 10 μL of DTNB and 10 μL of Ach or Bch.
(§2) Briefly, the basis for this assay is the hydrolysis of acetylthiocholine by acetylcholinesterase, producing thiocholine that reacts with DTNB. […] Degrees of inhibition were calculated according to […] wherein E and S represent enzyme activities in the presence and absence of a test sample, respectively.
(§3) The compounds of Table 1 were evaluated for anti-Alzheimer activity. In this regard, inhibitory activity against AChE (acetylcholinesterase) and BChE (butyrylcholinesterase), which lyse acetylcholine in the central nervous system, was measured according to the Experimental Method to calculate IC(inhibition concentrations)50 values.

[2] = tested on: NIH3T3 (mouse embryo fibroblast cell-line); experiment: MTT cytotoxicity assay, normal cell line; format: cell-based; conditions: conclusion from LD50, MTT
Description: (§4) Mouse fibroblast cell line NIH3T3 and mouse melanoma cell line B16F10 were separately seeded at a density of 1×10^3 cells/well into 96-well plates and grown in DMEM supplemented with 10% FBS (fetal bovine serum) at 37° C. in a 5% CO2 atmosphere. The cells in each cell were incubated for 24 hours with predetermined concentrations of each of the compounds (pterosin A, pterosin B, pterosin C, pterosin D, pterosin P, pterosin Z, pteroside A, pteroside A2, pteroside B, pteroside C isomers, pteroside D, pteroside N, pteroside P, and pteroside Z) and then for 2 hours with 100 μL of MTT (0.5 mg/ml PBS). After aspiration of the medium from each well, incubation was conducted for 10 min with 100 μL of DMSO. Absorbance at 570 nm was read using a microplate reader (SPCTRA MAX 340PC, Molecular Devices, USA). Absorbance is an index accounting for a number of viable cells and was used to calculate cell proliferation rates according to the following formula. All experiments were conducted three times for reproducibility.
(§5) Cell proliferation rate (%)=OD550 (sample)/OD550 (control)
(§6) The normal cell line NIH3T3 (mouse embryo fibroblast cell-line) and the cancerous cell line B16F10 (mouse melanoma cell-line) were separately grown in 96-well plates and incubated for 48 hours with predetermined concentrations of each of the compounds. After additional incubation with MTT, absorbance at 550 nm was read using a microplate reader. Absorbance is an index accounting for a number of viable cells and was used to calculate cell proliferation rates according to the following formula. All experiments were conducted three times for reproducibility.
(§7) Cell proliferation rate (%)=OD550(sample)/OD550(control)
(§8) Then, LD50 (Lethal Dose 50) values were calculated on the basis of changes in the cell proliferation rate.

[3] = tested on: B16F10 (mouse melanoma cell-line); experiment: MTT cytotoxicity assay, cancerous cell line; format: cell-based; conditions: for LD50 Cancer cell 816F10: MTT, incubated for 48 hours with compound; for toxicity to cancerous cells, in words: conclusion from LD50, MTT
Description: as §4, §5, §6, §7, §8

[4] = molecular target: T2, acetylcholinesterase (AChE, EC3.1.1.7) (Electrophorus electricus, UniProt O42275); experiment: In vitro cholinesterase activity assay (Ellman) and enzyme kinetics, AChE; format: biochemical; conditions: for AChE inhibition / IC50 rank, in words: among the compounds tested; for Inhibition type Acetylcholinesterase: Dixon plot and Lineweaver plot
T2 construct: purchased Sigma-Aldrich Co. (St. Louis, Mo., USA)
T2 sequence (O42275 24-633): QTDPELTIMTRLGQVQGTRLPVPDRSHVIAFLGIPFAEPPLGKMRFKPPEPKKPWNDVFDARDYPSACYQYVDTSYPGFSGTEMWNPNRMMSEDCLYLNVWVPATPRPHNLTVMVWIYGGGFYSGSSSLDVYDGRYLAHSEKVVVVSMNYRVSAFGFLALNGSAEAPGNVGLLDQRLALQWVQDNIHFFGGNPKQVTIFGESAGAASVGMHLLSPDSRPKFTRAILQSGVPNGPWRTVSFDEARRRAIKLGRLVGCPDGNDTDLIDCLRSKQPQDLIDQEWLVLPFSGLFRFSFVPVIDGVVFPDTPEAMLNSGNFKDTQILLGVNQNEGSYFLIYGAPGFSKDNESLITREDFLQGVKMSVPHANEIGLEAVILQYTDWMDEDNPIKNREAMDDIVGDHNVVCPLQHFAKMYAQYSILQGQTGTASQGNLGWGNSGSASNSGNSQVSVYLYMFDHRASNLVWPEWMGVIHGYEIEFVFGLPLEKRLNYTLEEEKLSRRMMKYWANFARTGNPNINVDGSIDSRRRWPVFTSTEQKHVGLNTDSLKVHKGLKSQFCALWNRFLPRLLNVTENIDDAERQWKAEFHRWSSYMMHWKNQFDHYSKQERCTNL
Description: as §1, §2, §3

[5] = molecular target: BACE1 (β-secretase, recombinant human enzyme) (Homo sapiens, UniProt P56817); experiment: biochemical; format: biochemical; conditions: for Inhibition type BACE1: Dixon plot and Lineweaver plot; for BACE1 IC50 compared with quercetin, in words: positive control quercetin
BACE1 (β-secretase, recombinant human enzyme), sequence (P56817 46-501): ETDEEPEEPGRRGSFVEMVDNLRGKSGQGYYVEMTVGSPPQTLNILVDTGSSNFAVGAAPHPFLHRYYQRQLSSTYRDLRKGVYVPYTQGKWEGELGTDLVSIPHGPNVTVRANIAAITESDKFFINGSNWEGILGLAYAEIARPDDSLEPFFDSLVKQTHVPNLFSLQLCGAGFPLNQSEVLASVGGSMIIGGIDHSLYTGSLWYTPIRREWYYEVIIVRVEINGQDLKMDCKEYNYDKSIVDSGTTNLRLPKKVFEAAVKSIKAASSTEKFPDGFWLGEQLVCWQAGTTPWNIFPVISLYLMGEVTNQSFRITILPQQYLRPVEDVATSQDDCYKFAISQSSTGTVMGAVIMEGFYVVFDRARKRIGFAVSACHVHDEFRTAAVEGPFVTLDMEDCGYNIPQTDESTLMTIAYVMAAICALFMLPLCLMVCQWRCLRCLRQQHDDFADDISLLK
Description: A BACE1 fluorescence resonance energy transfer (FRET) assay kit (β-secretase, recombinant human enzyme) was purchased from Pan Vera Co. (Madison, Wis., USA).
BACE1 is an enzyme promotive of the production of β-amyloid, which destroys neurons. In order to examine the effects on the compounds of Table 1 on the activity of BACE1, IC(inhibition concentrations)50 values were determined by measuring BACE1 activity in vitro according to Experimental Methods.

[6] = concentrations up to 125 μM, read-out: IC50 Butyrylcholine esterase Mean ± SEM
[7] = concentrations up to 125 μM, read-out: IC50 Acetylcholine esterase Mean ± SEM

SMILES	SI selectivity index (BChE/AChE) [1]	IC50 [5] [µM]	Inhibition type BACE1 [5]	BACE1 IC50 compared with quercetin, in words [5]	also measured
Cc1cc2c(c(C)c1CCO[C@@H]1OC(CO)[C@@H](O)[C@H](O)C1O)C(=O)[C@](C)(O)C2 (single isomer, unassigned; (-)) [Compound 18, (−)-pteroside N]	1.7	–	–	–	–
CC(=O)C1(/C(C)=C\C2=CC(=O)C(C)C2)CC1 (stereo not drawn) [Compound 2, 3-[2-(1-Acetylcyclopropyl)-1-propenyl)-5-methyl-2-cyclopenten-1-one]	0.83	19.4 ± 1.7	mixed type	lower than or similar to that of quercetin	toxicity to normal cells, in words [2]: almost non-toxic; toxicity to normal cells, in words ([2]; listed as compound of Chemical Formula 2): non-toxic; LD50 Cancer cell 816F10 [3]: 688 µM; toxicity to cancerous cells, in words [3]: slightly toxic; IC50 [1]: 72.9 ± 0.73 µM; IC50 [4]: 87.7 ± 1.6 µM; AChE inhibition / IC50 rank, in words [4]: highest
Cc1cc2c(c(C)c1CCO)C(=O)[C@](C)(CO)C2 [Compound 3, (2S)-pterosin A]	12	64.9 ± 5.1	–	–	LD50 Cancer cell 816F10 [3]: 522 ± 25 µM; toxicity to cancerous cells, in words [3]: slight cytotoxicity; IC50 [1, 6]: 57.3 ± 3.3 µM; IC50 [4, 7]: 88.7 ± 2.6 µM
Cc1cc2c(c(C)c1CCO)C(=O)[C@H](C)C2 [Compound 4, (2R)-pterosin B]	3.0	18 ± 2	noncompetitive	–	Inhibition type Butyrylcholinesterase [1]: noncompetitive; Inhibition type Acetylcholinesterase [4]: mixed; AChE inhibition / IC50 rank, in words [4]: excellent
Cc1cc2c(c(C)c1CCO)C(=O)[C@@H](C)[C@@H]2O [Compound 6, (2S,3S)-pterosin C]	–	–	–	lower than or similar to that of quercetin	BChE inhibition / IC50 rank, in words [1]: excellent
Cc1cc2c(c(C)c1CCO)C(=O)[C@H](C)[C@H]2O [Compound 7, (2R,3R)-pterosin C]	0.88	15.9 ± 3.5	mixed	lower than or similar to that of quercetin	Inhibition type Butyrylcholinesterase [1]: mixed; Inhibition type Acetylcholinesterase [4]: noncompetitive
Cc1cc2c(c(C)c1CCO)C(=O)[C@@H](C)[C@H]2O [Compound 8, (2S,3R)-pterosin C]	3.5	14.1 ± 1.6	noncompetitive	lower than or similar to that of quercetin	Inhibition type Butyrylcholinesterase [1]: noncompetitive; Inhibition type Acetylcholinesterase [4]: mixed
Cc1cc2c(c(C)c1CCO)C(=O)C(C)(C)[C@@H]2O [Compound 9, (3R)-Pterosin D]	–	56.3 ± 3.9	–	–	IC50 [1]: > 12 µM; BChE inhibition / IC50 rank, in words [1]: highest
Cc1c(CCO)c(CO)cc2c1C(=O)[C@@H](C)C2 [Compound 10, (2S)-pterosin P]	3.1	40.8 ± 4.1	–	–	–
Cc1cc2c(c(C)c1CCO)C(=O)C(C)(C)C2 [Compound 11, pterosin Z]	1.7	48.7 ± 3.2	–	–	toxicity to normal cells, in words [2]: slightly toxic; LD50 Cancer cell 816F10 [3]: 618 ± 71 µM; toxicity to cancerous cells, in words [3]: slightly toxic
Cc1cc2c(c(C)c1CCO[C@@H]1OC(CO)[C@@H](O)[C@H](O)C1O)C(=O)[C@](C)(CO)C2 (stereo partly drawn) [Compound 12, (2S)-pteroside A]	–	–	–	–	IC50 [1, 6]: 199 ± 0.25 µM
Cc1cc2c(c(C)c1CCO)C(=O)[C@](C)(COC1O[C@H](CO)[C@@H](O)[C@H](O)[C@H]1O)C2 (stereo partly drawn) [Compound 13, (2S)-pteroside A2]	3.0	94.4 ± 4.5	–	–	IC50 [1]: 119 ± 2.5 µM
Cc1cc2c(c(C)c1CCO[C@@H]1OC(CO)[C@@H](O)[C@H](O)C1O)C(=O)[C@H](C)C2 (stereo partly drawn) [Compound 14, (2R)-pteroside B]	–	–	noncompetitive	–	Inhibition type Butyrylcholinesterase [1]: mixed; BChE inhibition / IC50 rank, in words [1]: excellent; IC50 [1, 6]: 17 µM; Inhibition type Acetylcholinesterase [4]: mixed; AChE inhibition / IC50 rank, in words [4]: lowest; also recorded: excellent
Cc1cc2c(c(C)c1CCO[C@@H]1OC(CO)[C@@H](O)[C@H](O)C1O)C(=O)[C@@H](C)[C@H]2O (stereo partly drawn) [Compound 15, (2S,3R)-pteroside C]	1.4	–	–	–	IC50 [1, 6]: 12 ± 0.14 µM; IC50 [4, 7]: 9.57 ± 0.32 µM
Cc1cc2c(c(C)c1CCO[C@@H]1OC(CO)[C@@H](O)[C@H](O)C1O)C(=O)[C@H](C)[C@H]2O (stereo partly drawn) [Compound 16, (2R,3R)-pteroside C]	1.4	–	mixed	lower than or similar to that of quercetin	BChE inhibition / IC50 rank, in words [1]: lowest; AChE inhibition / IC50 rank, in words [4]: excellent
Cc1cc2c(c(C)c1CCO[C@@H]1OC(CO)[C@@H](O)[C@H](O)C1O)C(=O)C(C)(C)[C@H]2O (stereo partly drawn) [Compound 17, (3S)-pteroside D]	0.70	–	mixed	lower than or similar to that of quercetin	–
Cc1c(CCO[C@@H]2OC(CO)[C@@H](O)[C@H](O)C2O)c(CO)cc2c1C(=O)[C@@H](C)C2 (stereo partly drawn) [Compound 19, (2S)-pteroside P]	0.57	–	–	–	–
Cc1cc2c(c(C)c1CCO[C@@H]1OC(CO)[C@@H](O)[C@H](O)C1O)C(=O)C(C)(C)C2 (stereo partly drawn) [Compound 20, pteroside Z]	0.24	–	–	–	BChE inhibition / IC50 rank, in words [1]: excellent
